Data: US20070191325A1, “Methods for altering insulin secretion” (priority 2004, published 2007)

Legend:
INS-1 cells = experiment: Glucose-induced insulin secretion of INS-1 cells; format: cell-based, rat; details: INS-1 cells pretreated with 100 nM dexamethasone
Procedure: Prior to the experiment INS-1 cells were treated in culture with dexamethasone, 100 nM, for 4 h. Cells were washed twice and preincubated in HEPES buffered salt solution containing (in mmol/l): 140 NaCl, 5.6 KCl, 1.2 MgCl2, 2.6 CaCl2, 0.5 glucose, 10 HEPES and 5 g/l bovine serum albumin, pH 7.4 at 37° C. Thereafter cells were incubated for 30 min at 37° C. in fresh solution containing the test substances at the appropriate concentrations. Insulin was measured by radioimmunoassay using rat insulin antiserum (Linco, Biotrend Chemikalien GmbH, Cologne, Germany), I^125-insulin (CIS Diagnostik GmbH, Dreieich, Germany) and rat insulin (Novo Nordisk, Mainz, Germany) as standard or by an Insulin Elisa kit (Mercodia, Uppsala, Sweden).
INS-1 cells (kindly provided by CB Wollheim, University of Geneva, Switzerland) derived from a rat insulinoma were cultured in HEPES-buffered RPMI 1640 supplemented with 10% fetal calf serum (Biochrom, Berlin, Germany), 1 mmol/l HEPES, 1 mmol/l Na pyruvate, 10 μmol/l β-mercaptoethanol (Sigma, Munich, Germany) and antibiotics as described elsewhere (Abel et al., 1996; Asfari et al., 1992). Cells were seeded at a cell density of 2.0-2.5 10^5 cells/ml in 24-well culture plates and cultured for 2 days prior to the experiment. Cells were washed twice with HEPES buffered salt solution containing (in mmol/l): 140 NaCl, 5.6 KCl, 1.2 MgCl2, 2.6 CaCl2, 0.5 glucose, 10 HEPES and 5 g/l bovine serum albumin, pH 7.4. and preincubated for 30 min at 37° C. […] Incubations were stopped on ice, medium removed and frozen at −20° C. until insulin released into the supernatant was measured by radioimmunoassay using rat insulin antiserum (Linco, Biotrend Chemikalien GmbH, Cologne, Germany), I^125-insulin (CIS Diagnostik GmbH, Dreieich, Germany) and rat insulin (Novo Nordisk, Mainz, Germany) as standard or an insulin Elisa kit (Mercodia, Uppsala, Sweden). Insulin content was measured after extraction with acid ethanol (1.5 (v/v) % HCl/75% ethanol) over night at 4° C.

[1] = test system: voltage gated outward current (Kv channels) in INS-1 cells; experiment: Patch clamp measurement of whole cell outward current in INS-1 cells; format: cell-based, rat; details: for 4-AP sensitive current: INS-1 cells after 4 hours 100 nM dexamethasone; for inhibition of outward current: untreated INS-1 cells
Procedure: Cells were treated prior to the experiment with 100 nm dexamethasone for 4 h. (2A) whole cell current was induced by 200 ms voltage pulses increasing by 10 mv steps from −70 mv to +50 mv. (2B) Sensitivity to 4-ap (0.1 and 1 mm) and tea (1 and 10 mm) was tested in cells before (black columns) and after dexamethasone treatment (white columns). Voltage pulses of 200 ms duration from −70 to 50 mv were applied. Shown are means±sem for the indicated number of experiments. * denotes significance (p<0.05) to current in control, non treated cells at the same inhibitor concentration. Ins-1 cells were cultured as described before (Abel et al., 1996; Asfari et al., 1992). The external patch clamp solution contained (in mmol/l): 140 NaCl, 5.6 KCl, 1.2 MgCl2, 2.6 CaCl2, 0.5 glucose and 10 HEPES, PH 7.4. The internal solution contained (in mmol/l): 30 KCL, 95 K^+-gluconate, 1 MgCl2, 1.2 NaH2PO4, 4.8 Na2HPO4, 5 Na2ATP, 1 Na3GTP, 5 mmol/l EGTA, PH 7.2. An Epc9 Patch Clamp Amplifier (Heka Electronic, Lambrecht, Germany) Was Used For Current Measurements.
INS-1 cells were cultured for 2-4 days on glass cover slips coated with poly-L-ornithine (10 mg/l Sigma, Munich, Germany) at appropriate cell densities (1.2×10^6 cells/ml). The cover slips were mounted in a bath chamber on the stage of an inverted microscope (IM, Zeiss, Jena, Germany). The cells were kept at room temperature or at 34° C. as indicated for each experiment and superfused with a solution containing (in mmol/l): 140 NaCl, 5.6 KCl, 1.2 MgCl2, 2.6 CaCl2, 0.5 glucose and 10 HEPES, pH 7.4. The patch clamp pipettes (Clark-Medical, Reading, Great Britain) with a resistance of 4-6 MΩ were pulled using a DMZ-universal puller (Zeitz, Augsburg, Germany). They were filled with an internal solution containing (in mmol/l): 30 KCl, 95 K^+-gluconate, 1 MgCl2, 1.2 NaH2PO4, 4.8 Na2HPO4, 5 Na2ATP, 1 Na3GTP, 5 mmol/l EGTA, pH 7.2. An EPC9 patch clamp amplifier (Heka Electronic, Lambrecht, Germany) was used for current measurements. Only stable current measurements, i.e. when currents reached at least 90% of control current after removal of the respective inhibitory drug, were used for analysis.

[2] = test system: SGK1 protein in INS-1 cells; experiment: Western blotting of SGK1 protein in INS-1 cells; format: cell-based, rat
Procedure: INS-1 cells were treated with 100 nM dexamethasone or vehicle (DMSO) in culture for the indicated periods of time.
Plots were incubated with antibodies against SGK1 (New England Biolabs, Beverly, Mass., USA). Bound antibody was visualized using a second antibody coupled to horse radish peroxidase.
Thereafter, culture medium was removed and cells were lysed in a solution containing 300 mM NaCl, 20 mM Tris HCl, pH 7.4, 1% (v/v) Triton X-100, 1% Sodiumdeoxycholate, 0.1% SDS, 2.5 mM EDTA, 10 μg/ml Pepstatin A, 10 μg/ml Aprotinin and 0.1 mM PMSF. Total cellular protein, 50 μg, quantified by Coomassie Blue G staining (Bradford dye assay, Biorad Laboratories GmbH, Munich, Germany) was subjected to SDS-PAGE (1%), and plotted onto a nitrocellulose membrane (Schleicher and Schuell, Dassel, Germany). Plots were incubated with antibodies against SGK1 (New England Biolabs, Beverly, Mass., USA). Bound antibody was visualized using a second antibody coupled to horse radish peroxidase.

Kv1.5 mRNA in INS cells = experiment: Real time PCR of Kv1.5 mRNA in INS-1 cells; format: cell-based, rat; details: 100 nM dexamethasone, within 4 hours
[3] = biological target: nuclear glucocorticoid receptor (Mus musculus, UniProt P06537); details: Lambillotte et al., 1997; cited from earlier work
[4] = test system: SGK1 transcript levels in INS-1 cells; experiment: Real time PCR of SGK1 mRNA in INS-1 cells; format: cell-based, rat; details: with 100 nM dexamethasone

nuclear glucocorticoid receptor, sequence (P06537 whole entry): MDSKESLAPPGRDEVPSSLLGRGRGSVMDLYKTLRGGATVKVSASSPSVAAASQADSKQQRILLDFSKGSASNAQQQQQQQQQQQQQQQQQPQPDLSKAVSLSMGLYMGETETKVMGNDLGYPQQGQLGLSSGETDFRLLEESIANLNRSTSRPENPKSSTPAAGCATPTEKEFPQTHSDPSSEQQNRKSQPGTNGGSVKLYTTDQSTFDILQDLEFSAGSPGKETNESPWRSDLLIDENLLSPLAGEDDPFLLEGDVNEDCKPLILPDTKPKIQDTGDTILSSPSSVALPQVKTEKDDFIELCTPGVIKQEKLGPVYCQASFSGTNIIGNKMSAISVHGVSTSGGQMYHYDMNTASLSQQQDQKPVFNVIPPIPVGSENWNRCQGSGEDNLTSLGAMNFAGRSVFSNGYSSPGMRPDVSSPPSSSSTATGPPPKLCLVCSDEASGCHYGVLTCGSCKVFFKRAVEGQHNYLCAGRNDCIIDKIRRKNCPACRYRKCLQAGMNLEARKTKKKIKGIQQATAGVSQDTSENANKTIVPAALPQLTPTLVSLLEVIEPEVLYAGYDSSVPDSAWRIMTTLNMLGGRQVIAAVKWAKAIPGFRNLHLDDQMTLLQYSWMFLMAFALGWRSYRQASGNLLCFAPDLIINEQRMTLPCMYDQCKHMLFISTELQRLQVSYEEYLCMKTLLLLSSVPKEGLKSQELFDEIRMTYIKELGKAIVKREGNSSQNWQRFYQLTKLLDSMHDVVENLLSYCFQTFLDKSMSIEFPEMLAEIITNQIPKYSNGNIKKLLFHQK

Nc1ccncc1 [4-AP]
effect on dexamethasone-induced inhibition of insulin secretion (INS-1 cells): reversed
4-AP sensitive current ([1]; 0.1 mM 4-AP): 28%
4-AP sensitive current ([1]; 1 mM 4-AP): 40%
inhibition of outward current ([1]; 0.1 mM 4-AP): 10%
inhibition of outward current ([1]; 1 mM 4-AP): 28%

C[C@@H]1C[C@H]2[C@@H]3CCC4=CC(=O)C=C[C@]4(C)[C@@]3(F)[C@@H](O)C[C@]2(C)[C@@]1(O)C(=O)CO [dexamethasone]
time until SGK1 protein / expression appears ([2]; 100 nM dexamethasone): ≤ 2 h
inhibition at 0.1 µM (INS-1 cells; Rattus norvegicus, INS1): 62%
increase of abundance of Kv1.5 mRNA (factor) (Kv1.5 mRNA in INS cells): approx. 10

CC[N+](CC)(CC)CC [TEA]
effect on dexamethasone-induced inhibition of insulin secretion (INS-1 cells): reversed

CC#C[C@]1(O)CC[C@H]2[C@@H]3CCC4=CC(=O)CCC4=C3[C@@H](c3ccc(N(C)C)cc3)C[C@@]21C [RU486, mifepristone]
effect on dexamethasone-induced inhibition of insulin secretion [3]: completely abolished
effect on dexamethasone-induced SGK1 expression ([2]; RU486 at 1 μmol/l, with 100 nM dexamethasone): completely inhibited
effect on dexamethasone-induced increase in SGK1 protein abundance ([2]; with 100 nM dexamethasone): fully reversed
effect on dexamethasone-induced increase of SGK1 mRNA transcript levels [4]: completely abrogated
